Biological target: E. coli cysteinyl-tRNA synthetase (EcCysRS) (Escherichia coli, UniProt P21888)
Assay: aminoacylation of E. coli tRNA-Cys with […]-Cys by purified CysRS
Type: biochemical

Chain of E. coli cysteinyl-tRNA synthetase (EcCysRS) (P21888 whole entry): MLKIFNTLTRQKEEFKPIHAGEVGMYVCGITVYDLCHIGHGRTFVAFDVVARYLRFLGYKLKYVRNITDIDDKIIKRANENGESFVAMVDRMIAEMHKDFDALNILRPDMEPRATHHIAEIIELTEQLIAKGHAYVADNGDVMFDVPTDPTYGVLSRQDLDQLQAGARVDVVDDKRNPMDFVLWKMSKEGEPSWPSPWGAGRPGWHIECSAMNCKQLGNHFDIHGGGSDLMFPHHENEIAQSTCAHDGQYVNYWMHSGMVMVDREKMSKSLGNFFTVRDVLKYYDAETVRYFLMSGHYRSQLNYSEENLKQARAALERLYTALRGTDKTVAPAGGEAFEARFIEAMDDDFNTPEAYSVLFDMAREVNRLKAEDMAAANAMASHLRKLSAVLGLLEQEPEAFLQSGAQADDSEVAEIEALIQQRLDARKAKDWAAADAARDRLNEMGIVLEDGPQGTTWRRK

`Nc1ncnc2c1ncn2[C@@H]1O[C@H](COS(=O)(=O)NC(=O)[C@@H](N)CS)[C@@H](O)[C@H]1O` [Cys-AMS] gave an IC50 of less than 600 nM.

From paper PMC5511029 (Journal of molecular biology, 2017)
